Key:
Type in all cases: biochemical
factor Xa = factor Xa (Homo sapiens, UniProt P00742); assay: In vitro inhibition of factor Xa
thrombin = thrombin (Homo sapiens, UniProt P00734); assay: In vitro inhibition of thrombin
factor XIa = factor XIa (Homo sapiens, UniProt P03951); assay: In vitro inhibition of factor XIa
Chain of factor XIa (P03951 388-625 limits assumed): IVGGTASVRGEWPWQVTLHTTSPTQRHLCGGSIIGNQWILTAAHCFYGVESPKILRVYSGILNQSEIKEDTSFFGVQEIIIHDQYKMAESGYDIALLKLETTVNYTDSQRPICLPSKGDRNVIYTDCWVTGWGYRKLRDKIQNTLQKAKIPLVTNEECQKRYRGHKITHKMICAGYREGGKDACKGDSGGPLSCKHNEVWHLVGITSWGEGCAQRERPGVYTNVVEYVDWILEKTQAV

Chain of factor Xa (P00742 235-488 limits assumed): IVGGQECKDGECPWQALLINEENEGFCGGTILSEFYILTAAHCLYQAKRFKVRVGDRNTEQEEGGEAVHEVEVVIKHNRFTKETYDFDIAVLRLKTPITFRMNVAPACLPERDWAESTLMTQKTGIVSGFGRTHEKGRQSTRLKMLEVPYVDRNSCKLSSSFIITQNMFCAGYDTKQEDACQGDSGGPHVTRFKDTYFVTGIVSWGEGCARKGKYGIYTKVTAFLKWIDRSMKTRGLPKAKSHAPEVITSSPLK
Chain of factor Xa (P00742 41-179 partner limits assumed): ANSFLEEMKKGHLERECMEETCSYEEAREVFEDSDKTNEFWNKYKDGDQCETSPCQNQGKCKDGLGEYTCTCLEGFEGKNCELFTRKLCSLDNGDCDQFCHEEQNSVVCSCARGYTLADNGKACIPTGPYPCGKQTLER

Row | SMILES | IC50 (factor Xa) [µM] | IC50 (thrombin) [µM] | IC50 (factor XIa) [µM]
1 | Cc1c(O)cccc1NC(=O)Cn1cc(C(=N)N)c2ccccc21 [Compound 1] | 167 | > 200 | 47.9
2 | C[C@@H](CNC(=O)Cn1cc(C(=N)N)c2ccccc21)c1ccccc1 [Compound 5] | 283 | > 200 | 37.1
3 | N=C(N)c1cn(CC(=O)Nc2cccnc2)c2c(Br)cccc12 [Compound 8] | 170 | > 200 | 0.62
4 | N=C(N)c1cn(CC(=O)Nc2cc(F)cc(F)c2)c2c(Br)cccc12 [Compound 12] |  |  | 2.51
5 | N=C(N)c1cn(CC(=O)Nc2ccc3ncccc3c2)c2c(Br)cccc12 [Compound 34] |  |  | 1.39
6 | N=C(N)c1cn(CC(=O)Nc2cccnc2)c2cc(CCC(N)=O)ccc12 [Compound 40] |  |  | 127
7 | N=C(N)c1cn(CC(=O)Nc2cccnc2)c2c(-c3cccc(O)c3)cccc12 [Compound 46] |  |  | 8.09
8 | N=C(N)c1cn(CC(=O)Nc2cccnc2)c2c(/C=C/C(N)=O)cccc12 [Compound 47] |  | > 200 | 1.77
9 | N=C(N)c1cn(CC(=O)Nc2cccnc2)c2c(/C=C/C(=O)Nc3cccnc3)cccc12 [Compound 54] |  |  | 1.99
10 | COC(=O)c1ccc(NC(=O)Cn2cc(C(=N)N)c3cccc(/C=C/C(=O)NC4Cc5ccccc5C4)c32)cc1 [Compound 58] |  |  | 3.23
11 | COC(=O)c1ccc(NC(=O)Cn2cc(C(=N)N)c3cccc(/C=C/C(=O)N4CCc5cc(O)c(O)cc5C4)c32)cc1 [Compound 64] |  |  | 1.96
12 | N=C(N)c1cn(CC(=O)Nc2ccc(C(=O)O)cc2)c2c(C=CC(=O)NC(Cc3ccc(O)cc3)C(=O)O)cccc12 (stereo not shown) [Compound 70] | > 2 | > 200 | 0.042
13 | N=C(N)c1cn(CC(=O)Nc2ccc(C(=O)O)cc2)c2c(/C=C/C(=O)N[C@H](C(=O)O)c3ccccc3)cccc12 [Compound 77] | 67.8 | > 200 | 0.093

The next lines start with the values.

Row | IC50 (factor Xa) [µM] | IC50 (thrombin) [µM] | IC50 (factor XIa) [µM] | SMILES
14 |  |  | 1.47 | N=C(N)c1cn(CC(=O)Nc2cccnc2)c2c(C(N)=O)cccc12 [Compound 84]
15 |  |  | 3.81 | CCOC(=O)C1CCCN(C(=O)Cn2cc(C(=N)N)c3cccc(C(=O)N4CCCC(C(=O)OCC)C4)c32)C1 (stereo not shown) [Compound 91]
16 | 82 | 4.2 | 0.87 | COC(=O)c1ccc(NC(=O)Cn2cc(C(=N)N)c3cccc(C(=O)NCc4ccc(O)c(O)c4)c32)cc1 [Compound 95]
17 |  | 3.78 | 0.1 | COC(=O)[C@H](CC(C)C)NC(=O)c1cccc2c(C(=N)N)cn(CC(=O)Nc3cccnc3)c12 [Compound 98]
18 |  |  | 6.27 | N=C(N)c1cn(C(=CC(=O)N2CCNCC2)c2ccccc2)c2ccccc12 [Compound 101]
19 |  |  | 13.7 | N=C(N)c1cn(C(=CC(=O)N2CCCC(C(=O)O)C2)c2ccccc2)c2ccccc12 (stereo not shown) [Compound 111]
20 | 35.1 | 60.2 | 1.36 | COC(=O)c1ccc(Br)cc1-n1cc(C(=N)N)c2ccccc21 [Compound 131]
21 | 15.2 | 43.7 | 1.62 | COC(=O)c1ccc(-c2cccc(O)c2)cc1-n1cc(C(=N)N)c2ccccc21 [Compound 135]
22 | 9.65 | 73.1 | 3.8 | COC(=O)c1ccc(-c2cccnc2)cc1-n1cc(C(=N)N)c2ccccc21 [Compound 139]
23 |  |  | 11.3 | COC(=O)c1ccc(NC(=O)c2cccnc2)cc1-n1cc(C(=N)N)c2ccccc21 [Compound 142]
24 |  |  | 81.7 | N=C(N)c1cn(-c2cc(Br)ccc2C(=O)N2CCNCC2)c2ccccc12 [Compound 144]
25 |  |  | 134 | CON(C)C(=O)c1ccc(Br)cc1-n1cc(C(=N)N)c2ccccc21 [Compound 148]
26 |  |  | 280 | N=C(N)c1cn(-c2cc(Br)ccc2C(=O)NCc2ccccc2)c2ccccc12 [Compound 150]
27 | 145 | 224 | 4.15 | N=C(N)c1cn(-c2ccccc2[N+](=O)[O-])c2ccccc12 [Compound 151]
28 | 54.7 | 20.2 | 3 | COC(=O)c1cccc(Oc2ccc([N+](=O)[O-])c(-n3cc(C(=N)N)c4ccccc43)c2)c1 [Compound 154]
29 | 80.8 | > 200 | 1.24 | N=C(N)c1cn(-c2cc(Cl)ccc2[N+](=O)[O-])c2c(C(=O)Nc3cccnc3)cccc12 [Compound 158]

Reference: US20080146811A1, “Compounds and Methods For Treatment of Thrombosis” (priority 2004, published 2008)
